Usually IC50 stands for the midpoint of a concentration-inhibition curve. Higher therefore signals lower potency.

The values below come from ChEMBL document CHEMBL3585245, “Synthesis and antiproliferative evaluation of 9-methoxy-6-(piperazin-1-yl)-11H-indeno[1,2-c]quinoline-11-one derivatives. Part 4” (Medchemcomm, 2014).

For one assay, the system named is MDA-MB-231. As to the kind of experiment: Antiproliferative activity against human MDA-MB-231 cells incubated for 72 hrs by MTT assay. Format: functional, cell-based. To be noted: MDA-MB-231, 72 h. A general note: Tetrazolium assays rely on reduction of a dye to a coloured formazan, in cell work by metabolically active cells.
Assay [1] concerns NCI-H1299. The assay can be described thus: Induction of apoptosis in human H1299 cells assessed as late apoptotic cells level at 10 uM annexin V and propidium iodide double staining based flow cytometry (reference value: 2.62 +/- 0.75%). In kind it is functional. On the technique in general: A flow cytometer gives signals particle by particle.
Assay [2] concerns NCI-H1299. The assay can be described thus: Induction of apoptosis in human H1299 cells assessed as decrease in Bcl2 expression at 1 to 10 uM incubated for 24 hrs by Western blotting method. In kind it is functional, cell-based. Background: Immunoblotting shows a protein as a band on a membrane.
Assay [3] concerns NCI-H1299. As to the kind of experiment: Induction of apoptosis in human H1299 cells assessed as increase in BAX cleavage at 1 to 10 uM incubated for 24 hrs by Western blotting method. Format: functional, cell-based.
Assay [4] deals with NCI-H1299. As to the kind of experiment: Induction of apoptosis in human H1299 cells assessed as early apoptotic cells level at 1 uM annexin V and propidium iodide double staining based flow cytometry (reference value: 0.74 +/- 0.31%). In kind it is functional.
The test system of assay [5] is NCI-H1299. As to the kind of experiment: Induction of apoptosis in human H1299 cells assessed as late apoptotic cells level at 5 uM annexin V and propidium iodide double staining based flow cytometry (reference value: 2.62 +/- 0.75%). Format: functional.
For assay [6], the system named is NCI-H1299. As to the kind of experiment: Induction of DNA damage in human H1299 cells at 5 uM incubated for 24 hrs by single cell electrophoresis-based alkaline comet assay. Format: functional.
The next assay deals with HeLa. The assay can be described thus: Antiproliferative activity against human HeLa cells incubated for 72 hrs by MTT assay. Format: functional, cell-based.
The nature of assay [7]: Reduction in PTEN protein expression in human H1299 cells at 1 to 10 uM incubated for 24 hrs by Western blotting method. To be noted: NCI-H1299. In kind it is functional, cell-based.
A short description of assay [8]: Antiproliferative activity against human SKHep cells incubated for 72 hrs by MTT assay. Format: functional, cell-based.
The subject of assay [9] is NCI-H1299. As to the kind of experiment: Antiproliferative activity against human H1299 cells incubated for 72 hrs by MTT assay. Format: functional, cell-based. To be noted: NCI-H1299, 72 h.
The test system of assay [10] is NCI-H1299. As to the kind of experiment: Induction of apoptosis in human H1299 cells assessed as increase in caspase-3 activation at 1 to 10 uM incubated for 24 hrs by Western blotting method. In kind it is functional, cell-based.
Assay [11] can be described thus: Reduction in SIRT1 protein expression in human H1299 cells at 1 to 10 uM incubated for 24 hrs by Western blotting method. In kind it is functional, cell-based. To be noted: NCI-H1299.
In assay [12] the test system is NCI-H1299. As to the kind of experiment: Induction of apoptosis in human H1299 cells assessed as early apoptotic cells level at 5 uM annexin V and propidium iodide double staining based flow cytometry (reference value: 0.74 +/- 0.31%). In kind it is functional.
A further assay concerns SAS. As to the kind of experiment: Antiproliferative activity against human SAS cells incubated for 72 hrs by MTT assay. In kind it is functional, cell-based.
In a further assay the test system is Nucleic Acid. As to the kind of experiment: Induction of DNA intercalation of negative supercoiled Escherichia coli pBR322 DNA at 10 uM incubated for 12 hrs by ethidium bromide staining based DNA mobility assay. Format: nucleic-acid assay.
Assay [13] can be described thus: Antiproliferative activity against human 786-O cells incubated for 72 hrs by MTT assay. To be noted: 786-0, 72 h. In kind it is functional, cell-based.
Assay [14] in a line: Reduction in FOXO3a protein expression in human H1299 cells at 1 to 10 uM incubated for 24 hrs by Western blotting method. Format: functional, cell-based. To be noted: NCI-H1299.
Assay [15] has as its system NCI-H1299. The assay can be described thus: Induction of apoptosis in human H1299 cells assessed as late apoptotic cells level at 1 uM annexin V and propidium iodide double staining based flow cytometry (reference value: 2.62 +/- 0.75%). In kind it is functional.
Assay [16] in a line: Reduction in HDAC6 protein expression in human H1299 cells at 1 to 10 uM incubated for 24 hrs by Western blotting method. In kind it is functional, cell-based. To be noted: NCI-H1299.
The next assay concerns AGS. The assay can be described thus: Antiproliferative activity against human AGS cells incubated for 72 hrs by MTT assay. Format: functional, cell-based.
Assay [17] relates to NCI-H1299. As to the kind of experiment: Induction of apoptosis in human H1299 cells assessed as increase in PARP cleavage at 1 to 10 uM incubated for 24 hrs by Western blotting method. In kind it is functional, cell-based.
The subject of assay [18] is NCI-H1299. As to the kind of experiment: Induction of apoptosis in human H1299 cells assessed as increase in caspase-7 activation at 1 to 10 uM incubated for 24 hrs by Western blotting method. In kind it is functional, cell-based.
The nature of assay [19]: Reduction in p-Akt protein expression in human H1299 cells at 1 to 10 uM incubated for 24 hrs by Western blotting method. Format: functional, cell-based. To be noted: NCI-H1299.
Assay [20] deals with NCI-H1299. As to the kind of experiment: Induction of apoptosis in human H1299 cells assessed as early apoptotic cells level at 10 uM annexin V and propidium iodide double staining based flow cytometry (reference value: 0.74 +/- 0.31%). Format: functional.
For another assay, the system named is Detroit 551. As to the kind of experiment: Antiproliferative activity against human Detroit 551 cells incubated for 72 hrs by MTT assay. To be noted: Detroit 551, 72 h. Format: functional, cell-based.
For assay [21], the system named is NCI-H1299. The assay can be described thus: Induction of DNA damage in human H1299 cells at 10 uM incubated for 24 hrs by single cell electrophoresis-based alkaline comet assay. Format: functional.
For assay [22], the system named is NCI-H1299. The assay can be described thus: Induction of apoptosis in human H1299 cells assessed as early apoptotic cells level at 1 uM annexin V and propidium iodide double staining based flow cytometry (reference value: 0.4 +/- 0.17%). In kind it is functional.
The subject of assay [23] is NCI-H1299. The assay can be described thus: Induction of apoptosis in human H1299 cells assessed as late apoptotic cells level at 1 uM annexin V and propidium iodide double staining based flow cytometry (reference value: 1.9 +/- 0.12%). Format: functional.
Assay [24] deals with NCI-H1299. As to the kind of experiment: Induction of apoptosis in human H1299 cells assessed as late apoptotic cells level at 10 uM annexin V and propidium iodide double staining based flow cytometry (reference value: 1.9 +/- 0.12%). Format: functional.
The subject of assay [25] is NCI-H1299. As to the kind of experiment: Induction of apoptosis in human H1299 cells assessed as early apoptotic cells level at 10 uM annexin V and propidium iodide double staining based flow cytometry (reference value: 0.4 +/- 0.17%). Format: functional.
Assay [26] relates to NCI-H1299. As to the kind of experiment: Induction of apoptosis in human H1299 cells assessed as early apoptotic cells level at 5 uM annexin V and propidium iodide double staining based flow cytometry (reference value: 0.4 +/- 0.17%). Format: functional.
The subject of assay [27] is NCI-H1299. The assay can be described thus: Induction of apoptosis in human H1299 cells assessed as late apoptotic cells level at 5 uM annexin V and propidium iodide double staining based flow cytometry (reference value: 1.9 +/- 0.12%). In kind it is functional.

Activity calls are given as the source filed them. No cut-off for these calls is given here.

Take `COc1ccc2c(c1)/C(=N\OCC1CO1)c1c-2c(N2CCN(CC3CO3)CC2)nc2ccccc12` (stereo not given): the IC50 in the assay with MDA-MB-231 amounted to 0.79 µM; in the assay on HeLa it was 0.54 µM; in assay [8], 990 nM; in the assay with NCI-H1299 [9], 1.18 µM; in the assay on SAS, 6.2 µM; in [13] it was 8.8 µM. The IC50 with AGS was 8.76 µM; with Detroit 551, 7.95 µM. Further, the Activity worked out at 17.9% with NCI-H1299 [1]; 1.38% in the assay with NCI-H1299 [4]; 8.25% in the assay on NCI-H1299 [5]; 2.45% with NCI-H1299 [12]; 4.5% in the assay with NCI-H1299 [15]; 1.6% in the assay on NCI-H1299 [20]. The result (in the assay on NCI-H1299 [2]; in the assay with NCI-H1299 [3]; with NCI-H1299 [6]; in assay [7]; with NCI-H1299 [10]; in assay [11]) was Active. Besides, the outcome (in the assay on Nucleic Acid; in assay [14]; in [16]; with NCI-H1299 [17]; in the assay with NCI-H1299 [18]; in [19]) was Active.

`COc1ccc2c(c1)C(=O)c1c-2c(N2CCN(CC3CO3)CC2)nc2ccccc12` (stereo not given): the IC50 with MDA-MB-231 was 7.65 µM; in the assay on HeLa, 10.7 µM; in assay [8], greater than 30000 nM; in the assay with NCI-H1299 [9], 7.92 µM; in the assay on SAS it was greater than 30 µM; in assay [13] it was 19.1 µM. For the same compound, the IC50 in the assay with AGS worked out at 21.4 µM. Further, in the assay with NCI-H1299 [21], the result was Active. For the same compound, the Activity in the assay with NCI-H1299 [22] is reported as 1.83%; with NCI-H1299 [23], 4.51%; in the assay on NCI-H1299 [24], 7.57%; in the assay with NCI-H1299 [25], 3.29%; in the assay on NCI-H1299 [26] it was 1.57%; with NCI-H1299 [27] it was 4.98%.
